In experiment [1] the target is Serine/threonine-protein kinase OSR1 (Homo sapiens) (UniProt O95747). Nature of the experiment: Inhibition of wild-type human full length OSR1 (M1 to S527 residues) expressed in mammalian expression system at 10 uM by Kinomescan method relative to control.
Experiment [2] has as its target cGMP-dependent protein kinase 1 (Homo sapiens) (UniProt Q13976). As to the kind of experiment: Inhibition of wild-type human partial length PRKG1 (L339 to F686 residues) expressed in bacterial expression system at 10 uM by Kinomescan method relative to control.
Experiment [3] deals with Macrophage colony-stimulating factor 1 receptor (Homo sapiens) (UniProt P07333). Nature of the experiment: Inhibition of wild-type human partial length autoinhibited CSF1R (Y538 to S939 residues) expressed in mammalian expression system at 10 uM by Kinomescan method relative to control.
Experiment [4] has as its target Dual specificity mitogen-activated protein kinase kinase 3 (Homo sapiens) (UniProt P46734). Nature of the experiment: Inhibition of wild-type human full length MEK3 (M1 to S318 residues) expressed in mammalian expression system at 10 uM by Kinomescan method relative to control.
Experiment [5] concerns the target Cyclin-dependent kinase 17 (Homo sapiens) (UniProt Q00537). As to the kind of experiment: Inhibition of wild-type human full length PCTK2 (M1 to F523 residues) expressed in bacterial expression system at 10 uM by Kinomescan method relative to control.
In experiment [6] the target is Homeodomain-interacting protein kinase 2 (Homo sapiens) (UniProt Q9H2X6). Nature of the experiment: Inhibition of wild-type human partial length HIPK2 (M153 to S564 residues) expressed in mammalian expression system at 10 uM by Kinomescan method relative to control.
Experiment [7] deals with Cyclin-dependent kinase 2 (Homo sapiens) (UniProt P24941). As to the kind of experiment: Inhibition of wild-type human full length CDK2 (M1 to L298 residues) expressed in bacterial expression system at 10 uM by Kinomescan method relative to control.
Experiment [8] deals with Cyclin-dependent kinase 4 (Homo sapiens) (UniProt P11802). As to the kind of experiment: Inhibition of wild-type human full length CDK4 (M1 to E303 residues) expressed in mammalian expression system at 10 uM by Kinomescan method relative to control.
Experiment [9] deals with Ephrin type-B receptor 6 (Homo sapiens) (UniProt O15197). As to the kind of experiment: Inhibition of wild-type human partial length EPHB6 (Q634 to P948 residues) expressed in mammalian expression system at 10 uM by Kinomescan method relative to control.
Experiment [10] concerns the target Tyrosine-protein kinase ABL2 (Homo sapiens) (UniProt P42684). As to the kind of experiment: Inhibition of wild-type human ABL2 (A248 to G542 residues) expressed in bacterial expression system at 10 uM by Kinomescan method relative to control.
Experiment [11] concerns Tyrosine-protein kinase ABL1 (Homo sapiens), P00519 [H396P]. As to the kind of experiment: Inhibition of human phosphorylated ABL1 H396P mutant (S229 to K512 residues) expressed in mammalian expression system at 10 uM by Kinomescan method relative to control.
Experiment [12] addresses Aurora kinase B (Homo sapiens) (UniProt Q96GD4). As to the kind of experiment: Inhibition of wild-type human partial length AURKB (D25 to A303 residues) expressed in mammalian expression system at 10 uM by Kinomescan method relative to control.
The target of experiment [13] is Tyrosine-protein kinase receptor UFO (Homo sapiens) (UniProt P30530). As to the kind of experiment: Inhibition of wild-type human partial length AXL (R497 to Y821 residues) expressed in bacterial expression system at 10 uM by Kinomescan method relative to control.
Experiment [14] deals with Tyrosine-protein kinase Fer (Homo sapiens) (UniProt P16591). As to the kind of experiment: Inhibition of wild-type human partial length FER (S542 to T822 residues) expressed in bacterial expression system at 1 uM by Kinomescan method relative to control.
Experiment [15] concerns the target Serine/threonine-protein kinase mTOR (Homo sapiens) (UniProt P42345). As to the kind of experiment: Inhibition of wild-type human partial length MTOR (L1382 to W2549 residues) expressed in mammalian expression system at 1 uM by Kinomescan method relative to control.
The target of experiment [16] is Mitotic checkpoint serine/threonine-protein kinase BUB1 (Homo sapiens) (UniProt O43683). As to the kind of experiment: Inhibition of wild-type human partial length BUB1 (Q724 to K1085 residues) expressed in mammalian expression system at 1 uM by Kinomescan method relative to control.
Experiment [17] addresses Serine/threonine-protein kinase N2 (Homo sapiens) (UniProt Q16513). As to the kind of experiment: Inhibition of wild-type human partial length PKN2 (E634 to C984 residues) expressed in bacterial expression system at 1 uM by Kinomescan method relative to control.
The target in experiment [18] is Proto-oncogene tyrosine-protein kinase ROS (Homo sapiens) (UniProt P08922). Nature of the experiment: Inhibition of wild-type human partial length ROS1 (A1921 to N2240 residues) expressed in bacterial expression system at 1 uM by Kinomescan method relative to control.
For experiment [19], the target named is Serine/threonine-protein kinase Nek3 (Homo sapiens) (UniProt P51956). As to the kind of experiment: Inhibition of wild-type human full length NEK3 (M1 to R506 residues) expressed in mammalian expression system at 1 uM by Kinomescan method relative to control.
In experiment [20] the target is Mitogen-activated protein kinase kinase kinase 5 (Homo sapiens) (UniProt Q99683). Nature of the experiment: Inhibition of wild-type human partial length ASK1 (E648 to S964 residues) expressed in bacterial expression system at 1 uM by Kinomescan method relative to control.
The target of experiment [21] is Serine/threonine-protein kinase 32B (Homo sapiens) (UniProt Q9NY57). Nature of the experiment: Inhibition of wild-type human full length YANK2 (M1 to S414 residues) expressed in bacterial expression system at 1 uM by Kinomescan method relative to control.
Experiment [22] has as its target Mitogen-activated protein kinase kinase kinase 15 (Homo sapiens) (UniProt Q6ZN16). Nature of the experiment: Inhibition of wild-type human partial length MAP3K15 (T625 to L932 residues) expressed in mammalian expression system at 1 uM by Kinomescan method relative to control.
The subject of experiment [23] is Mast/stem cell growth factor receptor Kit (Homo sapiens), P10721 [UNDEFINED MUTATION]. As to the kind of experiment: Inhibition of human partial length KIT V559D/V654 double mutant (Y545 to D952 residues) expressed in bacterial expression system at 1 uM by Kinomescan method relative to control.
The target of experiment [24] is Calcium/calmodulin-dependent protein kinase type II subunit alpha (Homo sapiens) (UniProt Q9UQM7). As to the kind of experiment: Inhibition of wild-type human partial length CAMK2A (M1 to K328 residues) expressed in bacterial expression system at 1 uM by Kinomescan method relative to control.
Sequence of Calcium/calmodulin-dependent protein kinase type II subunit alpha (Homo sapiens) (Q9UQM7 whole entry, the tested form may be a part, canonical isoform): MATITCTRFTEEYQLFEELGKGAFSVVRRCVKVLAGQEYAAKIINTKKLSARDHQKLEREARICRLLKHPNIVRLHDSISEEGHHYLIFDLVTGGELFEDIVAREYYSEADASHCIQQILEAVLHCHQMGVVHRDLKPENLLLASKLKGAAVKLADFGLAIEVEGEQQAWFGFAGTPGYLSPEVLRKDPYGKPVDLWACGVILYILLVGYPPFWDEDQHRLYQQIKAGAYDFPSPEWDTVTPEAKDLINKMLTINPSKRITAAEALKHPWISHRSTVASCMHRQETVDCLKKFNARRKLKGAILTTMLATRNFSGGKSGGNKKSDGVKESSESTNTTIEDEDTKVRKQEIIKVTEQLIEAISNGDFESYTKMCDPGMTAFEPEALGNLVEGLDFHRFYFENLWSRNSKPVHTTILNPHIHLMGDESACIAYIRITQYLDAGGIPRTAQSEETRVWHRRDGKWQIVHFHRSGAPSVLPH
In experiment [25] the target is Phosphatidylinositol 4,5-bisphosphate 3-kinase catalytic subunit gamma isoform (Homo sapiens) (UniProt P48736). As to the kind of experiment: Inhibition of wild-type human partial length PIK3CG (S144 to A1102 residues) expressed in mammalian expression system at 1 uM by Kinomescan method relative to control.
The target of experiment [26] is MAP/microtubule affinity-regulating kinase 4 (Homo sapiens) (UniProt Q96L34). Nature of the experiment: Inhibition of wild-type human partial length MARK4 (K29 to G340 residues) expressed in bacterial expression system at 1 uM by Kinomescan method relative to control.
Sequence of MAP/microtubule affinity-regulating kinase 4 (Homo sapiens) (Q96L34 whole entry, the tested form may be a part): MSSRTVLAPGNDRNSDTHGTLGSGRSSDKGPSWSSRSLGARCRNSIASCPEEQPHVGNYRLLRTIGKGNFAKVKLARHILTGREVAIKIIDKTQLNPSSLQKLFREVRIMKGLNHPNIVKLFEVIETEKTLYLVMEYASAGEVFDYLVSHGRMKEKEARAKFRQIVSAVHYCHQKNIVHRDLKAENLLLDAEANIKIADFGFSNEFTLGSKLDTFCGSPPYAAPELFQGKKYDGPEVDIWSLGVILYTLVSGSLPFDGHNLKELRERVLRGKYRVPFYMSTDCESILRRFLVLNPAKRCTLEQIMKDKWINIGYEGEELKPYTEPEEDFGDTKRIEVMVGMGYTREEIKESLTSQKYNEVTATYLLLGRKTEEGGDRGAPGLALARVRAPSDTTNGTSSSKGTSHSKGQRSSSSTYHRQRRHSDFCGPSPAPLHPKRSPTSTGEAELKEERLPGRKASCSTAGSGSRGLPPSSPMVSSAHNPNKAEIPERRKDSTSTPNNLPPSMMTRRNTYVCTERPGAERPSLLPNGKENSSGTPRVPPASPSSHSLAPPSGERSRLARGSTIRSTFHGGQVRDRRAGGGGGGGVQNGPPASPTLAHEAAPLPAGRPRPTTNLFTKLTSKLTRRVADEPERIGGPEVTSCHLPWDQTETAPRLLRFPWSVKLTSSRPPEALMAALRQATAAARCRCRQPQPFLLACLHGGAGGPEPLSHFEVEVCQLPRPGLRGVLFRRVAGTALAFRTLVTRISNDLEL
For experiment [27], the target named is Protein kinase C epsilon type (Homo sapiens) (UniProt Q02156). As to the kind of experiment: Inhibition of wild-type human partial length PRKCE (A378 to P737 residues) expressed in mammalian expression system at 1 uM by Kinomescan method relative to control.
Sequence of Protein kinase C epsilon type (Homo sapiens) (Q02156 whole entry, the tested form may be a part): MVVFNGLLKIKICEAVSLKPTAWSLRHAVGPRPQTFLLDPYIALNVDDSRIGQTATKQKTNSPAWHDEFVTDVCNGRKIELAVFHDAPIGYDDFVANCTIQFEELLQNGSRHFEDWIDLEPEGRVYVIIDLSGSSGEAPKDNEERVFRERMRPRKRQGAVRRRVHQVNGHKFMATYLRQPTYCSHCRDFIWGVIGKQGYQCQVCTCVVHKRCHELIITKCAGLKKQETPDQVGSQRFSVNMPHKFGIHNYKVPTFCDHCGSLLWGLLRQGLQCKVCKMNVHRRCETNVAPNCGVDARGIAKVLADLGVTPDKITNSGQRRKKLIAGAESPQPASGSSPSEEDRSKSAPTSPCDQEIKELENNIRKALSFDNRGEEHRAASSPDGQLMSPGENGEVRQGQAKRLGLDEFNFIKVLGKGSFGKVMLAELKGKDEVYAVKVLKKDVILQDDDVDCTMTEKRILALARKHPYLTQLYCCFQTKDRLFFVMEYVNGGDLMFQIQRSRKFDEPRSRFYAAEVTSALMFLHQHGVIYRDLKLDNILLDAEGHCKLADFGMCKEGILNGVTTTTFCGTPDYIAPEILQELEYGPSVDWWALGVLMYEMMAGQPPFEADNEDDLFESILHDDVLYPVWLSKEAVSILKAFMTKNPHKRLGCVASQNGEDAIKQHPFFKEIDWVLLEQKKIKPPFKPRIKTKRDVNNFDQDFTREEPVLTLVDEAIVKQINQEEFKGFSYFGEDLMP

Drawing on ChEMBL document CHEMBL4387741, “Optimization of novel reversible Bruton's tyrosine kinase inhibitors identified using Tethering-fragment-based screens” (Bioorg Med Chem, 2019), this text covers inhibition for two molecules.

For orientation: inhibition means the share of the control response that was lost under treatment.

Each structure is given as a SMILES string.

Sequence of Mitogen-activated protein kinase kinase kinase 15 (Homo sapiens) (Q6ZN16 whole entry, the tested form may be a part): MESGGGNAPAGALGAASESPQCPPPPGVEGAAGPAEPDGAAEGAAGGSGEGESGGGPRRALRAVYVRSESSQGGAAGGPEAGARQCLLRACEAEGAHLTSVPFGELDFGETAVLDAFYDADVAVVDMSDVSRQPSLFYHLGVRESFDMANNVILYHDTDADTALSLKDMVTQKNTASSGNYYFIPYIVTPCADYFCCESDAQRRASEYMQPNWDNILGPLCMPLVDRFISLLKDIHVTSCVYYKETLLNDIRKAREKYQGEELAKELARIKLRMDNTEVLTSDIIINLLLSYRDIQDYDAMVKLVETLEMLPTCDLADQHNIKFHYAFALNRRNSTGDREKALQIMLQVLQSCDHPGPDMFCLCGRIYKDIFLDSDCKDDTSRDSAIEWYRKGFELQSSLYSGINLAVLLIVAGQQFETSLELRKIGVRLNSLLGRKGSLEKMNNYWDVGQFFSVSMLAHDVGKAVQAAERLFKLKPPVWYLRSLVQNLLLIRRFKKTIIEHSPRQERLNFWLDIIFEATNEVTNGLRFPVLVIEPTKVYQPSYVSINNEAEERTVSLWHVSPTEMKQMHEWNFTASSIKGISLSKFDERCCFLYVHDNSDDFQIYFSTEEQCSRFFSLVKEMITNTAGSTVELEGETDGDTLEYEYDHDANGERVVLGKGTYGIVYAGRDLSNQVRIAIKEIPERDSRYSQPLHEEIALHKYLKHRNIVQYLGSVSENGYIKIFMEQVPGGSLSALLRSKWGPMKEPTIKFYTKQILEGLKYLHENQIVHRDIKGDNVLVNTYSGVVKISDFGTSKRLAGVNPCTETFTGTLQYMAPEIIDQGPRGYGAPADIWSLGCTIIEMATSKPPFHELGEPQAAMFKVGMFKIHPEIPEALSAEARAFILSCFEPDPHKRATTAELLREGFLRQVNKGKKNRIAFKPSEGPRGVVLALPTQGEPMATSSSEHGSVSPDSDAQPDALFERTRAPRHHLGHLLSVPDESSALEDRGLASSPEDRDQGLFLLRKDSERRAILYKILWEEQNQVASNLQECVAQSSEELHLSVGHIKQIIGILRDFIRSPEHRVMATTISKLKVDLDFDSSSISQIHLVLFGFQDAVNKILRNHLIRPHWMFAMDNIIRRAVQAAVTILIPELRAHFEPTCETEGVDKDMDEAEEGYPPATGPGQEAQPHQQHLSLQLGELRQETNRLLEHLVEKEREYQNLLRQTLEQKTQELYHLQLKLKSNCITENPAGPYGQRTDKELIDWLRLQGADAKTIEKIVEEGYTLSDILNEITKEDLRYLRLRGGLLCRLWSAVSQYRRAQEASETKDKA
Sequence of Tyrosine-protein kinase ABL2 (Homo sapiens) (P42684 whole entry, the tested form may be a part): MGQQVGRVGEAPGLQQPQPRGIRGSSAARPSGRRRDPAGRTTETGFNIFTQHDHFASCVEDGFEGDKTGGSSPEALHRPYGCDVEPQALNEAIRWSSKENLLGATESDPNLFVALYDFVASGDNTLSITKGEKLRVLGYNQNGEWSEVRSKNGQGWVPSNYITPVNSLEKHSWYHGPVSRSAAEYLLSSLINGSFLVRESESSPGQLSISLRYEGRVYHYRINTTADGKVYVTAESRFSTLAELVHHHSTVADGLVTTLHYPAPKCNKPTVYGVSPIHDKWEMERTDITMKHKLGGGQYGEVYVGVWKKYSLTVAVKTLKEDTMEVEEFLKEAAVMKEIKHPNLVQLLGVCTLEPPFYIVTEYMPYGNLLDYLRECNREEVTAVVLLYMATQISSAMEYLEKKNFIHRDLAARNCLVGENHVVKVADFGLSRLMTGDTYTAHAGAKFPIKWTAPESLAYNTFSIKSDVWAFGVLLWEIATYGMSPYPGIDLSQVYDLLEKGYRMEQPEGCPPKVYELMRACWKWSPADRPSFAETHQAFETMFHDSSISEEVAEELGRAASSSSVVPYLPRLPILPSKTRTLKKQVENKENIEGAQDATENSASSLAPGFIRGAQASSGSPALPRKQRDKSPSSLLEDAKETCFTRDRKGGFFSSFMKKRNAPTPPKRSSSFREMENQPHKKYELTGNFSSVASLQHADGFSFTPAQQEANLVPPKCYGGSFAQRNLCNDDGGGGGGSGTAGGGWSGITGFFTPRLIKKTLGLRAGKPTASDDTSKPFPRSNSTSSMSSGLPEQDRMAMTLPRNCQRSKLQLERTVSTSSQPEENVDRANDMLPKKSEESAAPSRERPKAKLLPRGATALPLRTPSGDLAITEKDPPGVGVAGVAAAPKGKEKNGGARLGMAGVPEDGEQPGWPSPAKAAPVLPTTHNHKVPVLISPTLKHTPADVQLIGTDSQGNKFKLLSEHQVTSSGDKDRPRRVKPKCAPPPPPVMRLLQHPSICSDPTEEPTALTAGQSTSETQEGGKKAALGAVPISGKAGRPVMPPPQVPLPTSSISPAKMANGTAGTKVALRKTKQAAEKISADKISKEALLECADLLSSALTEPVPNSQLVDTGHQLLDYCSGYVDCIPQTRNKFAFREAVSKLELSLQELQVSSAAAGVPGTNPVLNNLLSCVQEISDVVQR
Sequence of Dual specificity mitogen-activated protein kinase kinase 3 (Homo sapiens) (P46734 whole entry, the tested form may be a part): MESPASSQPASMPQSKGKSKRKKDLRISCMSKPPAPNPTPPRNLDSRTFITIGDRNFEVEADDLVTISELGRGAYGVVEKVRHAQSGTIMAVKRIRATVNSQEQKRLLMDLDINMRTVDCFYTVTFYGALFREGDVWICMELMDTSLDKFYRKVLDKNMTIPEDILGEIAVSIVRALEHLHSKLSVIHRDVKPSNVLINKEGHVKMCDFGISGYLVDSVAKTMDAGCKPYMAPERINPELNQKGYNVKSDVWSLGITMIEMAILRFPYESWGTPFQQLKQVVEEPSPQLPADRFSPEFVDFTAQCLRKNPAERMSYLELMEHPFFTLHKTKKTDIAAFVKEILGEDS

Regarding `O=C(Nc1cccc([C@H]2CCCN(c3ncnc4[nH]ccc34)C2)c1)Nc1ccccc1N1CCCC1`, the inhibition in [1] was determined as 81%; in experiment [2] it was 44%; in [3], 64%; in experiment [4], 54%; in experiment [5], 97%; in experiment [6] it was 64%. For the same molecule, the inhibition was found to be 67% in [7]; 100% in [8]; 8.6% in experiment [9]; 89% in experiment [10]; 51% in experiment [11]; 1.1% in [12]. The inhibition in experiment [13] came to 16%.

For `O=C(Nc1cccc([C@@H]2CN(c3ncnc4[nH]ccc34)CCN2CCO)c1)Nc1c(F)cccc1N1CCCC1`, the inhibition in [14] amounted to 82%; in experiment [15], 96%; in experiment [16] it was 87%; in [17] it was 75%; in [18] it was 97%; in experiment [19], 65%. In addition, the inhibition amounted to 97% in experiment [20]; 100% in [21]; 74% in experiment [22]; 65% in experiment [23]; 95% in [24]; 84% in [25]. For the same molecule, the inhibition in [26] came out at 77%; in experiment [27] it was 72%.
